Data published in US9296741B2, “Bromodomain inhibitors” (priority 2012, dated 2016).
Marks after values point to notes of the source that are not given here.

How the values were obtained:
[1] = biological target: human BRD4 first bromodomain (BDI_K57-E168) (Homo sapiens (Human), UniProt O60885); assay: TR-FRET bromodomain binding assay, BRD4 first bromodomain
[2] = biological target: human BRD4 second bromodomain (BDII_E352-M457) (Homo sapiens (Human), UniProt O60885); assay: TR-FRET bromodomain binding assay, BRD4 second bromodomain
[3] = tested on: breast cancer cell line MX-1; assay: MX-1 cell line proliferation assay; type: cell-based, human; conditions: Homo sapiens, MX1, 72 h; MX-1 cells, 3-day proliferation, Cell Titer Glo; read-out: Cellular proliferation: EC50
SKM1 = assay: Proliferation panel assay, AML SKM1; type: cell-based; conditions: Homo sapiens, SKM-1, read-out: Cellular Proliferation EC50
Raji = assay: Proliferation panel assay, AML Raji; type: cell-based; conditions: Homo sapiens, Burkitt lymphoma, read-out: Cellular Proliferation EC50
EJ-1 = assay: Proliferation panel assay, Bladder EJ-1; type: cell-based; conditions: EJ1, read-out: Cellular Proliferation EC50
MDAMB231 = assay: Proliferation panel assay, Breast MDAMB231; type: cell-based; conditions: Homo sapiens, MDA-MB-231, read-out: Cellular Proliferation EC50
MDAMB453 = assay: Proliferation panel assay, Breast MDAMB453; type: cell-based; conditions: Homo sapiens, MDA-MB-453, read-out: Cellular Proliferation EC50
GEO = assay: Proliferation panel assay, Colon GEO; type: cell-based; conditions: read-out: Cellular Proliferation EC50
DLD-1 = assay: Proliferation panel assay, Colon DLD-1; type: cell-based; conditions: Homo sapiens, read-out: Cellular Proliferation EC50
D54MG = assay: Proliferation panel assay, Glioblastoma D54MG; type: cell-based; conditions: read-out: Cellular Proliferation EC50
FaDu = assay: Proliferation panel assay, Head & Neck FaDu; type: cell-based; conditions: Homo sapiens, read-out: Cellular Proliferation EC50
HepG2 = assay: Proliferation panel assay, Hepatocellular HepG2; type: cell-based; conditions: Homo sapiens, read-out: Cellular Proliferation EC50
A-375 = assay: Proliferation panel assay, Melanoma A-375; type: cell-based; conditions: Homo sapiens, read-out: Cellular Proliferation EC50
OPM2 = assay: Proliferation panel assay, Multiple Myeloma OPM2; type: cell-based; conditions: Homo sapiens, OPM-2, read-out: Cellular Proliferation EC50
RPMI-8226 = assay: Proliferation panel assay, Multiple Myeloma RPMI-8226; type: cell-based; conditions: Homo sapiens, read-out: Cellular Proliferation EC50
NCI-H929 = assay: Proliferation panel assay, Multiple Myeloma NCI-H929; type: cell-based; conditions: Homo sapiens, read-out: Cellular Proliferation EC50
Ramos = assay: Proliferation panel assay, NHL Ramos; type: cell-based; conditions: Homo sapiens, read-out: Cellular Proliferation EC50
Ly18 = assay: Proliferation panel assay, NHL Ly18; type: cell-based; conditions: read-out: Cellular Proliferation EC50
H1299 = assay: Proliferation panel assay, NSCLC H1299; type: cell-based; conditions: Homo sapiens, NCI-H1299, read-out: Cellular Proliferation EC50
H1975 = assay: Proliferation panel assay, NSCLC H1975; type: cell-based; conditions: Homo sapiens, NCI-H1975, read-out: Cellular Proliferation EC50
H460 = assay: Proliferation panel assay, NSCLC H460; type: cell-based; conditions: Homo sapiens, NCI-H460, read-out: Cellular Proliferation EC50
HPAC = assay: Proliferation panel assay, Pancreas HPAC; type: cell-based; conditions: Homo sapiens, read-out: Cellular Proliferation EC50
BxPC3FP5 = assay: Proliferation panel assay, Pancreas BxPC3FP5; type: cell-based; conditions: read-out: Cellular Proliferation EC50
PC3M = assay: Proliferation panel assay, Prostate PC3M; type: cell-based; conditions: Homo sapiens, PC-3M, read-out: Cellular Proliferation EC50
786-0 = assay: Proliferation panel assay, RCC 786-0; type: cell-based; conditions: Homo sapiens, read-out: Cellular Proliferation EC50
SK-LMS-1 = assay: Proliferation panel assay, Sarcoma SK-LMS-1; type: cell-based; conditions: Homo sapiens, read-out: Cellular Proliferation EC50
[4] = Human liver microsome stability assay; type: in vitro ADME; conditions: both sexes, human, microsomes, pH 7.4
[5] = Rat liver microsome stability assay; type: in vitro ADME; conditions: rat liver microsomes (male Sprague-Dawley), 0.5 μM test compound, 0.25 mg/mL microsomal protein, pH 7.4, 37° C.; read-out: Stability in rat liver microsomes (t1/2 in minutes)
[6] = Mouse liver microsome stability assay; type: in vitro ADME; conditions: male, CD1, mouse, microsomes, pH 7.4
[7] = tested on: LPS induced IL-6 production; assay: LPS (lipopolysaccharide) induced IL-6 production mouse assay; type: in vivo; conditions: Mus musculus, read-out: Inhibition of LPS induced IL-6 production in Mice, % inhibition at 3 mg/kg; 3 mg/kg oral, 1 h before LPS; serum IL-6 2 h after LPS
[8] = tested on: MX-1 human breast cancer xenograft tumors; assay: Xenograft tumor growth inhibition assay, MX-1; type: in vivo, mouse; conditions: MX-1, PO, BID (5 on, 3 off)x2, vehicle F
[9] = tested on: Ramos human cancer cell xenograft; assay: Xenograft efficacy study, Ramos; type: in vivo, mouse; conditions: 3.125 mg/kg/day, PO, BID (5 d on, 3 d off)x2, vehicle F

Row | Compound | Ki [1] [µM] | Ki [2] [µM] | EC50 [3] [µM] | EC50 (SKM1) [µM] | EC50 (Raji) [µM] | EC50 (EJ-1) [µM] | EC50 (MDAMB231) [µM] | EC50 (MDAMB453) [µM] | EC50 (GEO) [µM] | EC50 (DLD-1) [µM] | EC50 (D54MG) [µM] | EC50 (FaDu) [µM] | EC50 (HepG2) [µM] | EC50 (A-375) [µM] | EC50 (OPM2) [µM] | EC50 (RPMI-8226) [µM] | EC50 (NCI-H929) [µM] | EC50 (Ramos) [µM] | EC50 (Ly18) [µM] | EC50 (H1299) [µM] | also measured
1 | Cn1cc(-c2cc(NS(C)(=O)=O)ccc2Oc2ccccc2)c2cc[nH]c2c1=O [Example 4, N-[3-(6-methyl-7-oxo-6,7-dihydro-1H-pyrrolo[2,3-c]pyridin-4-yl)-4-phenoxyphenyl]methanesulfonamide] | 0.0014 | 0.002 | 0.0164 | 0.005 | 0.006 | 0.202 | 0.22 | 0.02 | 0.08 | 0.2 | 0.038 | 0.02 | 0.0746 | 0.02 | 0.001 | 0.011 | 0.003 | 0.02 | 0.02 | 0.06 | EC50 (H1975): 0.02 µM; EC50 (H460): 3.77 µM; EC50 (HPAC): 0.05 µM; EC50 (BxPC3FP5): 0.01 µM; EC50 (PC3M): 0.07 µM; EC50 (786-0): 0.011 µM; EC50 (SK-LMS-1): 0.025 µM; half-life at 0.5 μM [4]: 59 min; half-life at 0.5 μM [5]: 4 min; half-life at 0.5 μM [6]: 57 min; inhibition in vivo at 3 mg/kg [7]: 69%; % TGD (tumor growth delay) ([8]; 12.5 mg/kg/day): 70*** %; % TGI (tumor growth inhibition) ([8]; 12.5 mg/kg/day): 73*** %; % removed from study ([8]; 12.5 mg/kg/day): 10%; % TGD (tumor growth delay) ([8]; 25 mg/kg/day): 81*** %; % TGI (tumor growth inhibition) ([8]; 25 mg/kg/day): 77*** %; % removed from study ([8]; 25 mg/kg/day): 30%; % TGD (tumor growth delay) [9]: 27* %; % TGI (tumor growth inhibition) [9]: 19%; % removed from study [9]: 0%
2 | Cn1nc(-c2cc(NS(C)(=O)=O)ccc2Oc2ccccc2)c2cc(C(N)=O)[nH]c2c1=O [Example 78, 6-methyl-4-{5-[(methylsulfonyl)amino]-2-phenoxyphenyl}-7-oxo-6,7-dihydro-1H-pyrrolo[2,3-d]pyridazine-2-carboxamide] | 0.0025 | 0.0018 | 0.4 | 0.058 | 0.084 | 2.09 | 1.22 | 0.24 | 1.29 | 4.97 | 2.3 | 0.39 | 0.885 | 3.61 | 0.039 | 1.4 | 0.154 | 0.32 | 0.42 | 2.57 | EC50 (H1975): 1.37 µM; EC50 (H460): > 10 µM; EC50 (HPAC): 1.19 µM; EC50 (BxPC3FP5): 0.74 µM; EC50 (PC3M): 8.11 µM; EC50 (786-0): 0.884 µM; EC50 (SK-LMS-1): 0.934 µM
